Results on one sequence are retold here after patent US12268901B2, “Targeting cell tropism receptors to inhibit cytomegalovirus infection” (priority 2017, dated 2025).

Type in all cases: cell-based, Human cytomegalovirus (HCMV)
Assay [1] deals with HCMV infection of HEL fibroblasts. As to the kind of experiment: Peptide blocking assay, infection of HEL fibroblasts (percent IE positive cells). Particulars: peptide 1 100 μg/ml, MOI=2.0. As to the method: (§1) FIG. 9. […] TB40E-GFP encoding the viral PC or AD169 lacking PC were preincubated with peptide 1 (100 μg/ml) and then infected on ARPE19 epithelial cells or HEL fibroblasts (MOI=2.0). Cells were fixed, permeabilized, stained for DNA, immunostained for anti-immediate early protein (IE) and imaged. […] Values indicate the mean percentage of infected cells of n=3 experiments±SD. **p<0.01; ***p<0.001.
Live cell images: Phase and GFP signal images were captured on a Zeiss microscope (Zeiss AxioObserver Z1) at 10× magnification. Fixed cell images: cells were washed with PBS (Life Technologies) and fixed with 4% formalin in PBS (Sigma). DNA was stained with Hoechst 33342 dye (Life Technologies). The fixed cells were imaged using an Image Xpress Micro (IXM, Molecular Devices) at 4× magnification. Images were analyzed with MetaXpress imaging software (Molecular Devices) to determine the total cells per well and the percentage of infected cells (GFP positive) in each well. For IE immunostaining: fixed cells were permeabilized with 0.2% Triton X-100 (Sigma) in PBS. Blocking was performed with 1% BSA (Calbiochem, 2930) in PBS with 0.3M glycine (Sigma). Cells were then incubated in antibody targeting the major IE proteins (IE, EMD Millipore, MAB8131) diluted in 1% BSA in PBS. […]

Assay [2] concerns HCMV TB40E-GFP replication in ARPE19 cells. Put plainly: Plaque assay of culture supernatants for infectious virus. Particulars: peptide 1 100 μg/ml, ARPE19, MOI=2.0, supernatants at indicated dpi. As to the method:
(§2) (A) Different amounts of peptide 1 were preincubated with TB40E-GFP virus and the mixture applied to ARPE19. Viral DNA levels were quantified by qPCR. (B) The results in (A) are presented as the relative amount of viral DNA relative to the DMSO control. (C) TB40E-GFP virus was preincubated with peptide 1 (100 μg/ml), or DMSO, followed by infection of ARPE19 cells (MOI=2.0). Cells were imaged for GFP expression at 2 dpi (D2) and 7 dpi (D7). (D) TB40E-GFP or BADrUL131-GFP virus, both expressing PC, were preincubated with peptide 1 (100 μg/ml), or DMSO prior to infection of ARPE19 cells (MOI=2.0). Cells were fixed and imaged for GFP at 2 dpi. All data represent the mean of n=3 experiments+/−SD. (E) Culture media supernatants from (C) were harvested on the indicated dpi and assayed for infectious virus by plaque assay. Values indicate the mean percent infected cells of 3 independent experiments±SD. ****p<0.0001.

The test system of assay [3] is HCMV infection of ARPE19 epithelial cells. Put plainly: Peptide blocking assay, infection of ARPE19 cells (percent GFP or IE positive cells). Particulars: peptide 1 100 μg/ml. As for the experimental part: as §2, §1
FIG. 11. Each of the short peptides (aa sequences listed in Table 4; 150 uM), Peptide 1 (32.6 μM), or DMSO alone was preincubated with TB40E virus, followed by infection of ARPE19 cell lines (MOI=2.0). Cells were fixed and imaged for GFP and DNA at 2 dpi. Quantitation data indicating the percent GFP positive cells.
Live cell images: Phase and GFP signal images were captured on a Zeiss microscope (Zeiss AxioObserver Z1) at 10× magnification. Fixed cell images: cells were washed with PBS (Life Technologies) and fixed with 4% formalin in PBS (Sigma). DNA was stained with Hoechst 33342 dye (Life Technologies). The fixed cells were imaged using an Image Xpress Micro (IXM, Molecular Devices) at 4× magnification. Images were analyzed with MetaXpress imaging software (Molecular Devices) to determine the total cells per well and the percentage of infected cells (GFP positive) in each well. For IE immunostaining: fixed cells were permeabilized with 0.2% Triton X-100 (Sigma) in PBS. Blocking was performed with 1% BSA (Calbiochem, 2930) in PBS with 0.3M glycine (Sigma). Cells were then incubated in antibody targeting the major IE proteins (IE, EMD Millipore, MAB8131) diluted in 1% BSA in PBS. Cells were then incubated in secondary antibody (Texas Red-conjugated goat anti-mouse IgG2A, Southern Biotech, 1080-07) in PBS containing 1% BSA.
At 2 dpi with HCMV TB40E-GFP virus at the indicated MOI, ARPE19 cells were fixed with 4% formaldehyde and nuclei stained with Hoechst 33342. ARPE19 cells were imaged on an automated IXM scanning microscope. Numbers of infected cells were determined by calculating the percent GFP positive cells using MetaXpress software.
The noted synthetic peptides (100 ug/ml each or as described) were mixed with TB40E-GFP virus (1.2×10^6 PFU) and incubated at 37° C. for 2 h by rocking. The resulting samples were then subjected to the virus binding or infection assay.

Assay [4] deals with TB40E-GFP infection of ARPE19 cells. Put plainly: cAMP/PKA signaling pathway modulation, TB40E-GFP infection. Particulars: H-89 20 μM, SQ22536 150 μM, FSK 20 μM, 2 h prior to infection, MOI=4.0, 48 hpi. As to the method:
FIGS. 7A-C. HCMV receptor engagement and cAMP/PKA signaling. ARPE19 or OR14I1 knock down cells were pretreated with phosphokinase A (PKA) inhibitor H-89 (20 μM), adenylate cyclase antagonist, SQ22536 (150 μM), or adenylate cyclase activator, forskolin (FSK; 20 μM) for 2 h prior to TB40E-GFP infection (MOI=4.0). Cells were fixed at 48 hpi and images taken.
H-89, SQ22536 and Foskolin were purchased from Sigma-Aldrich Chemicals. Wild type ARPE19 or ARPE19 cells expressing the indicated shRNAs were treated with protein kinase A (PKA) inhibitor H-89 (20 μM), adenylate cyclase antagonist, SQ22536 (150 μM), or adenylate cyclase activator, forskolin (FSK; 20 μM) for 2 h prior to infection with TB40E-GFP (MOI=2.0). After 2 h, the medium was then replaced by the standard medium that also contained the noted small molecules. Images were taken at 2 dpi.
HCMV receptor engagement and cAMP/PKA signaling was also evaluated. ARPE19 or OR14I1 knock down cells were pretreated with phosphokinase A (PKA) inhibitor H-89 (20 μM), adenylate cyclase antagonist, SQ22536 (150 μM), or adenylate cyclase activator, forskolin (FSK; 20 μM) for 2 h prior to TB40E-GFP infection (MOI=4.0).

With “MDNLTKVTEFLLMEFSGIWELQVLHA (N-terminal fragment of OR14I1) [Peptide 1, synthetic peptide representing the N-terminus of OR14I1, position 1-26]”, the “PC+ HCMV infection of fibroblasts” value in assay [1] is listed as “modest effect”. In addition, the “long-term replication of HCMV (infectious virus by plaque assay)” value in assay [2] is “compromised the long-term replication of HCMV”. In assay [3] (TB40E-GFP encoding PC or AD169 lacking PC, MOI=2.0), the “anti-viral action versus presence of viral PC” value was “dependent on the presence of the PC”. The “anti-viral action versus viral strain” value in assay [3] (TB40E-GFP or BADrUL131-GFP, MOI=2.0, 2 dpi) is on record as “independent of viral strain”. The “HCMV infection of ARPE19 epithelial cells (percent IE positive cells)” value in assay [3] (TB40E-GFP, MOI=2.0) is “blocks HCMV infection of ARPE19 epithelial cells”. In assay [4], the “infectivity of TB40E-GFP in ARPE19 epithelial cells” value is “reduced infectivity significantly”.
